Patent US5096817A, “Process for producing antibiotics BU-3608 D and BU-3608 E” (Bristol-Myers Company, priority 1990, dated 1992)

Key:
Candida albicans A9540 = experiment: in vivo antifungal activity against C. albicans A9540 intravenous infection in mice; set-up: species or system male ICR mice; conditions: for Number of survivors/tested: 20th day; for ED50: Candida albicans, A9540, 480 h, intravenous, from survival rates on the 20th day, read-out: PD50 (dose that protects 50% of the animals from infection)
Experimental: In vivo activity of BU-3608 E was tested against Candida albicans A9540 infection in mice. Test organisms were cultured for 18 hours at 28° C. in YGP medium (yeast extract, glucose, peptone, K2 HPO4, MgSO4) and then suspended in saline. Male ICR mice weighing 20 to 24 g were infected intravenously with about 10 times the median lethal dose of the test fungus. The antibiotic at various dose levels was administered to groups of 5 mice each intravenously just after the fungal infection. The dose that protects 50% of the animals from infection (PD50, mg/kg) was calculated from survival rates recorded on the 20th day after the fungal challenge. All control animals died within 7 to 15 days after infection. The PD50 for BU-3608 D against the same organism and using the same test protocol as described above is 9 mg/kg/inj.

[1] = acute toxicity in mice after single intravenous administration; conditions: mouse, in vivo
Experimental: The acute toxicity of BU-3608 D was determined in mice after single intraveneous administration.

| SMILES | Number of survivors/tested (Candida albicans A9540; 1.6 mg/kg/inj. intravenously just after infection) | Number of survivors/tested (Candida albicans A9540; 3.1 mg/kg/inj. intravenously just after infection) | Number of survivors/tested (Candida albicans A9540; 6.3 mg/kg/inj. intravenously just after infection) | Number of survivors/tested (Candida albicans A9540; 12.5 mg/kg/inj. intravenously just after infection) | Number of survivors/tested (Candida albicans A9540; 25 mg/kg/inj. intravenously just after infection) | Number of survivors/tested (Candida albicans A9540; 50 mg/kg/inj. intravenously just after infection) | ED50 (Candida albicans A9540) [mg/kg] | LD50 [1] [mg/kg] |
| --- | --- | --- | --- | --- | --- | --- | --- | --- |
| COc1cc(O)c2c(c1)C(=O)c1c(cc3c(c1O)-c1c(cc(C)c(C(=O)NCC(=O)O)c1O)[C@H](O[C@@H]1O[C@H](C)[C@H](N)[C@H](O[C@@H]4OC[C@@H](O)[C@H](O)[C@H]4O)[C@H]1O)[C@H]3O)C2=O [BU-3608 E] | 0/5 | 0/5 | 1/5 | 4/5 | 5/5 | 5/5 | 8.9 |  |
| CN[C@@H]1[C@H](O[C@@H]2OC[C@@H](O)[C@H](O)[C@H]2O)[C@@H](O)[C@H](O[C@H]2c3cc(C)c(C(=O)NCC(=O)O)c(O)c3-c3c(cc4c(c3O)C(=O)c3cc(OC)cc(O)c3C4=O)[C@@H]2O)O[C@@H]1C [BU-3608 D] |  |  |  |  |  |  | 9 | 210 |
